Laboratory results reported in patent US20100105748A1, “METHODS AND COMPOSITIONS FOR TREATMENT OF DRUG ADDICTION” (priority 2007, published 2010).
Entries after “also recorded” stand apart in the source; their conditions may differ. Structures can show the parent of a compound that is named as a salt.

Tests used:
rats = rats / rodents; cited from earlier work
Dbh +/- and Dbh -/- mice = test: Elevated plus maze (EPM), cocaine-induced anxiety, Dbh mice; type: in vivo; conditions: for percent open arm time in EPM after cocaine: disulfuram 3x200 mg/kg i.p. two hours apart, cocaine 10 mg/kg i.p. 20 min before test; for percent open arm time in EPM after cocaine (cocaine-induced anxiety): antagonist i.p. 10 min prior to cocaine 10 mg/kg i.p., propranolol 5, prazosin 0.5, yohimbine 2.5 mg/kg; for percent open time in EPM, antagonist alone: same doses, no cocaine, tested 20 minutes later, vs saline-treated
Source text: Male and female Dbh +/− and −/− mice (aged 2 to 5 months) were individually housed on a reversed light cycle (lights on at 19:00, lights off at 7:00), and were allowed a minimum of two weeks to habituate to the new lighting conditions after moving from normal light cycle (lights on at 7:00, lights off at 19:00). Food and water were available ad libitum throughout the course of the study. Data from male and female mice were combined, since there were no detectable gender differences. Dbh mice were generated as described (15) and maintained on a mixed C57Bl6/J and 129SvEv background. Dbh +/− mice were used as controls, because they have normal brain catecholamine levels and are behaviorally identical to wild-type (Dbh +/+) mice (14-16). Three-month old male and female C57BL6/J mice (Jackson Labs, Bar Harbor, […].) were also used to generalize the findings from these experiments to a different strain of wild-type mouse. Housing, handling, and testing conditions for these animals were identical to those used in experiments with Dbh +/− mice.
Behavioral testing The EPM apparatus consisted of two open arms and two enclosed arms arranged in a plus orientation. The arms were elevated 30 inches above the floor, with each arm projecting 12 inches from the center. Because rodents naturally prefer dark, enclosed compartments, a greater willingness to explore the open, well-lit arms is believed to represent a decrease in the animal's anxiety. This interpretation has been validated by the efficacy of known anxiolytic and anxiogenic treatments in this paradigm (Paine et al., (2002) Behavioural Pharmacol. 13: […]; Gorman & Dunn (1993) Pharmacol. Biochem. & Behavior 45: 1-7; Pellow et al., (1985) J. Neurosci. Methods 14: 149-167; Johnston & File (1988) Pharmacol. Biochem. & Behavior 32: 151-156).
In all experiments, cocaine was injected 20 minutes prior to behavioral testing as described by Yang and colleagues (Yang et al., (1992) Pharmacol. Biochem. & Behavior 41: 643-650). To begin each test, mice were placed in the EPM facing one of the open arms and allowed to freely explore the apparatus for five minutes, during which time their behavior was videotaped. Videotapes were later scored by an observer who was blind to genotype and treatment group. The measure used for analysis was the percentage of time spent exploring the open arms, which was calculated by dividing the time spent in the open arms by the combined time spent in open and closed arms. Because some drug treatments and genetic manipulations alter overall locomotor activity, it was important to use this percentage measurement as the dependent variable for analysis (Pellow et al., (1985) J. Neurosci. Methods 14: 149-167).
Entry into an arm of the plus maze was defined as the animal placing all four paws in that particular compartment of the apparatus. All tests were run during the dark cycle, between 14:00 and 18:00. Mice were excluded from data analysis for any of the following reasons: if they jumped or fell off the maze after test had begun, if they had […] a seizure while on the testing apparatus, or if their open arm time was detected as an outlier using Grubb's test. Of 253 total mice tested, 10 were excluded from data analysis. Data were analyzed using independent samples t-tests, one-way ANOVA followed by Dunnett's post-hoc tests, or two-way ANOVA followed by Bonferroni post-hoc tests using Prism 4.0 for Macintosh. […]
This dosing regimen is known to decrease NE by ˜70% in the mouse brain (Bourdelat-Parks et al., (2005) Psychopharmacol. 183(1): 72-80). Mice received cocaine (10 mg/kg, i.p. at 10 ml/kg, dissolved in 0.9% saline) or saline two hours after the final pretreatment injection, and behavioral testing took place 20 minutes later, as described above. […]

DBH [1] = target: T1, DBH (Mus musculus, UniProt Q64237); conditions: three injections of 200 mg/kg i.p. spaced two hours apart; cited from earlier work
T1 construct: host or cells: peripheral and central tissues of animals, in vivo
T1 sequence (Q64237 1-622): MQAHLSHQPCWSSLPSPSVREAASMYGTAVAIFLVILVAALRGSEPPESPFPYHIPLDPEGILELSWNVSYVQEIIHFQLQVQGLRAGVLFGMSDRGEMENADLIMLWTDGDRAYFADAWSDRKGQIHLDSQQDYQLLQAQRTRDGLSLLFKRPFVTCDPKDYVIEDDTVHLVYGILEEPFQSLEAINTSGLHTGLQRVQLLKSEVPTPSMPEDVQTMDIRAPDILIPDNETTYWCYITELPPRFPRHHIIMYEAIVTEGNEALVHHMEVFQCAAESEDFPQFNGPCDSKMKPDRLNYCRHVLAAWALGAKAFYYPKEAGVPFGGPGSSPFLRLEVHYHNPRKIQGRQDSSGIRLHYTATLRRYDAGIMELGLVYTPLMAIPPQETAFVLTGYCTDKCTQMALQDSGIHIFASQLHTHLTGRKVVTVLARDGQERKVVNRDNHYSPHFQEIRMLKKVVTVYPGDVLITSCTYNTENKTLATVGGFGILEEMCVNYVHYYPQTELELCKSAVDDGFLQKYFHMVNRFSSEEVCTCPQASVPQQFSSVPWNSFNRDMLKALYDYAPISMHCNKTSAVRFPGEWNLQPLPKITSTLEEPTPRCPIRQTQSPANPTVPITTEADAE

DBH [2] = conditions: animals; cited from earlier work
animal models = conditions: cited from earlier work
DBH [3] = target: T2, DBH (Homo sapiens, UniProt P09172); conditions: cited from earlier work
T2 sequence (P09172 1-617): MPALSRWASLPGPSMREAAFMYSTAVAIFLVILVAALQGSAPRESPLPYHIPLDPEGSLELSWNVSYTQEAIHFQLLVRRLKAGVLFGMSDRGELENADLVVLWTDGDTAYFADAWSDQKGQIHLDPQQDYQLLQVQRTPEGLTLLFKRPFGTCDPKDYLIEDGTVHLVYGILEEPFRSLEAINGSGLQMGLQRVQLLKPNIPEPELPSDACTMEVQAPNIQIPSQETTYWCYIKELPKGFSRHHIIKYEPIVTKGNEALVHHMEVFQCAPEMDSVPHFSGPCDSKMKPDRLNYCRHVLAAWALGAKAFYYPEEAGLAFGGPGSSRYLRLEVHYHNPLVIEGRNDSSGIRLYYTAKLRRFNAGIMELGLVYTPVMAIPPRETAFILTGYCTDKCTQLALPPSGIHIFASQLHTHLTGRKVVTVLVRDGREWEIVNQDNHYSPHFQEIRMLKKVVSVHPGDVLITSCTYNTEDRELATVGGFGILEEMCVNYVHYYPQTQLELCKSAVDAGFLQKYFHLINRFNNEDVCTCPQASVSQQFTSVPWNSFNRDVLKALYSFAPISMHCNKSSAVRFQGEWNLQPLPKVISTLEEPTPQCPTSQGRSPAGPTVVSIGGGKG

mice = test: Cocaine-induced locomotion (ambulations in activity chambers); type: in vivo
Experimental: Locomotor activity measurement: Experiments were conducted in an isolated behavior room between 1000 and 1600 hrs. Ambulations (consecutive beam breaks) were measured in transparent plexiglass cages (40×20×20 cm^3) placed into a rack with seven infrared photobeams spaced 5 cm apart, each end beam 5 cm from the cage wall (San Diego Instruments Inc., LaJolla, Calif.). Mice were placed in the activity chambers for 4 hr, injected with cocaine (5, 10, or 20 mg/kg i.p.; Sigma-Aldrich, St Louis, Mo.), and ambulations were recorded for an additional 2 hr. Data were analyzed by ANOVA followed by Bonferroni post-hoc tests. For the antagonist studies, saline, the 5-HT1A antagonist WAY100635 (0.03 mg/kg), the 5-HT2 antagonist ketanserin (0.3 mg/kg), the D1 antagonist SCH23390 (0.03 mg/kg), or the D2 antagonist eticlopride were injected i.p. 30 min prior to cocaine (20 mg/kg). […] All drugs were purchased from Sigma-Aldrich (St Louis, Mo.).
Mice were implanted with minipumps for delivering either vehicle (50% DMSO, 0.9% NaCl or nepicastat (10 or 50 mg/kg/d). 3 weeks later, the mice were put in activity chambers, allowed to acclimate for 4 hrs, then injected with cocaine (10 mg/kg, i.p.) and ambulations measured for 2 additional hours, as shown in FIG. 8 (N=6 per group).
Two hours later, the mice were put in activity chambers, allowed to acclimate for 4 hrs, injected with cocaine (20 mg/kg, i.p.) and ambulations measured for 2 additional hours. (FIG. 9) (N=8 per group).

DBH [4] = target: T2, DBH; set-up: host or cells: human subjects, in vivo; conditions: humans; cited from earlier work
C57BL6/J wild type mice = test: Elevated plus maze (EPM), cocaine-induced anxiety, wild type C57BL6/J mice; type: in vivo
Experimental: Behavioral testing The EPM apparatus consisted of two open arms and two enclosed arms arranged in a plus orientation. The arms were elevated 30 inches above the floor, with each arm projecting 12 inches from the center. Because rodents naturally prefer dark, enclosed compartments, a greater willingness to explore the open, well-lit arms is believed to represent a decrease in the animal's anxiety. […]
In all experiments, cocaine was injected 20 minutes prior to behavioral testing as described by Yang and colleagues (Yang et al., (1992) Pharmacol. Biochem. & Behavior 41: 643-650). […] Videotapes were later scored by an observer who was blind to genotype and treatment group. The measure used for analysis was the percentage of time spent exploring the open arms, which was calculated by dividing the time spent in the open arms by the combined time spent in open and closed arms. […]
Entry into an arm of the plus maze was defined as the animal placing all four paws in that particular compartment of the apparatus. […] Mice were excluded from data analysis for any of the following reasons: if they jumped or fell off the maze after test had begun, if they had […] a seizure while on the testing apparatus, or if their open arm time was detected as an outlier using Grubb's test. […]

S=C(Nc1ccccc1)Nc1nccs1 [U-14,624]
reinstatement of amphetamine self-administration (rats): block

CCN(CC)C(=S)SSC(=S)N(CC)CC [disulfuram, tetraethylthiuram]
percent open arm time in EPM after cocaine (Dbh +/- and Dbh -/- mice): attenuates cocaine-induced anxiety
percent open arm time in EPM after cocaine (Dbh +/- and Dbh -/- mice; listed as Disulfuram): abolished the ability of cocaine to reduce open arm exploration time; also recorded: significantly increased level of open arm exploration
percent open arm time in EPM, saline instead of cocaine (Dbh +/- and Dbh -/- mice; disulfuram 3x200 mg/kg i.p., saline prior to testing): no effect
decrease of NE in the mouse brain (DBH [1]): ~70%
dopamine (DA) in peripheral and central tissues (DBH [2]): increase dopamine (DA)
norepinepherine (NE) in peripheral and central tissues (DBH [2]): decrease norepinepherine (NE)
cocaine sensitization (animal models): enhances cocaine sensitization
locomotor response to acute administration of amphetamine (animal models): decreases
locomotor response to acute administration of cocaine (animal models): decreases
reinstatement of amphetamine self-administration (rats): attenuates; also recorded: block
IC50 for DBH (DBH [3]): low micromolar range
locomotion induced by cocaine (mice; disulfuram via osmotic minipump 50 mg/kg/day for 2 to 3 weeks, cocaine 10 mg/kg, cocaine-naive animals): decreased
NE and its metabolites in urine, blood, and cerebrospinal fluid (DBH [4]): decreases

NCc1c[nH]c(=S)n1[C@H]1CCc2c(F)cc(F)cc2C1 [nepicastat, S-5-amino methyl-1-(5,7-difluoro-1,2,3,4-tetrahydronapthalyl)-1,3-dihydroimidazole-2-thione hydrochloride]
locomotion induced by cocaine (mice; prolonged (3 weeks) minipump treatment with 10 or 50 mg/kg/day, cocaine 10 mg/kg i.p., FIG. 8): significantly increased
cocaine-induced locomotion (mice; single acute dose 50 mg/kg i.p., cocaine 20 mg/kg i.p., FIG. 9, hydrochloride): did not significantly affect; also recorded: does not significantly affect

COc1cc2nc(N3CCN(C(=O)c4ccco4)CC3)nc(N)c2cc1OC [prazosin]
percent open arm time in EPM after cocaine (cocaine-induced anxiety) (Dbh +/- and Dbh -/- mice): preserved; also recorded: did not
percent open time in EPM, antagonist alone (Dbh +/- and Dbh -/- mice): no significant effect

CC(C)NCC(O)COc1cccc2ccccc12 (stereo not drawn) [propranolol]
percent open arm time in EPM after cocaine (cocaine-induced anxiety) (Dbh +/- and Dbh -/- mice): abolished; also recorded: differed significantly from the control group; also recorded: attenuates cocaine-induced anxiety
percent open time in EPM, antagonist alone (Dbh +/- and Dbh -/- mice): no significant effect
percent open arm time in EPM after cocaine (cocaine-induced anxiety) (C57BL6/J wild type mice; propranolol 5 mg/kg i.p. 10 min prior to cocaine 20 mg/kg i.p.): blocked; also recorded: attenuates cocaine-induced anxiety
baseline EPM performance (C57BL6/J wild type mice; propranolol 5 mg/kg i.p., saline instead of cocaine): no effect

COC(=O)[C@@H]1[C@H]2C[C@H]3c4[nH]c5ccccc5c4CCN3C[C@@H]2CC[C@@H]1O [yohimbine]
percent open arm time in EPM after cocaine (cocaine-induced anxiety) (Dbh +/- and Dbh -/- mice): preserved; also recorded: did not
percent open time in EPM, antagonist alone (Dbh +/- and Dbh -/- mice): no significant effect
